Source: US12319687B2, “Indole alkaloid compound in noni enzyme and preparation method and application thereof” (HAINAN NORMAL UNIVERSITY, priority 2020, dated 2025)

Assay: Physical and chemical properties: solubility
Assay type: physicochemical
Settings: in water, methanol, DMSO
Procedure: The physical and chemical properties, hydrogen spectrum and mass spectrometry detection data of each compound are as follows:
It is calculated by a HR-ESI-MS [m/z 225.1406, calculated value being 225.1465] that a molecular weight of the compound is 202, a molecular formula is C12H14N2O, and a degree of unsaturation is 7.
It is calculated by the HR-ESI-MS [m/z 225.1406, calculated value being 225.1465] that a molecular weight of the compound is 202, a molecular formula is C12H14N2O, and a degree of unsaturation is 7.

solubility | Compound
easily soluble in water, methanol, DMSO | C[C@H]1N[C@@H](O)Cc2c1[nH]c1ccccc21 [Compound 2, Noni alkaloid D]
easily soluble in water, methanol, DMSO | C[C@H]1N[C@H](O)Cc2c1[nH]c1ccccc21 [Compound 1, Noni alkaloid C]
